Like-named read-outs stand apart in the source and are kept apart here. Bounds are passed on as bounds.

Data set [1] deals with activation of MAP kinase in whole cells. Description: Whole cell MAP kinase assay (in vivo, cell culture). The data set is classed as cell-based. As to the method: To determine if compounds were able to block activation of MAP kinase in whole cells, the following protocol was used: Cells were plated in multi-well plates and grown to confluence. Cells were then serum-deprived overnight. Cells were exposed to the desired concentrations of compound or vehicle (DMSO) for 30 minutes, followed by addition of a growth factor, eg, PDGF (100 ng/mL). After a 5-minute treatment with the growth factor, cells were washed with PBS, then lysed in a buffer consisting of 70 mM NaCl, 10 mM HEPES (pH 7.4), 50 mM glycerol phosphate, and 1% Triton X-100. Lysates were clarified by centrifugation at 13,000×g for 10 minutes. Five micrograms of the resulting supernatants were incubated with 10 μg microtubule associated protein-2 (Map2) for 15 minutes at 30° C. in a final volume of 25 μL containing 50 mM Tris (pH 7.4), 10 mM MgCl2, 2 mM EGTA and 30 μM [γ-^32P]ATP. Reactions were terminated by addition of Laemmli sample buffer. Phosphorylated Map2 was resolved on 7.5% acrylamide gels and incorporated radioactivity determined by autoradiography and subsequent excision of the bands followed by scintillation counting.

The target in the next data set is p45MEK (GST-MEK) (Homo sapiens, UniProt Q02750). Description: Cascade assay for inhibitors of the MAP kinase pathway (in vitro). The format is biochemical. As to the method:
Incorporation of ^32P into myelin basic protein (MBP) was assayed in the presence of a glutathione S-transferase fusion protein containing p44MAP kinase (GST-MAPK) and a glutathione S-transferase fusion protein containing p45MEK (GST-MEK). The assay solution contained 20 mM HEPES, pH 7.4, 10 mM MgCl2, 1 mM MnCl2, 1 mM EGTA, 50 μM [γ-^32P]ATP, 10 μg GST-MEK, 0.5 μg GST-MAPK and 40 μg MBP in a final volume of 100 μL. […] Compounds were assessed at 10 μM for ability to inhibit incorporation of ^32P.
To ascertain whether compounds were inhibiting GST-MEK or GST MAPK, two additional protocols were employed. In the first protocol, compounds were added to tubes containing GST-MEK, followed by addition of GST-MAPK, MBP and [γ-^32P]ATP. In the second protocol, compounds were added to tubes containing both GST-MEK and GST-MAPK, followed by MBP and [γ-^32P]ATP.

For “2-(4-bromo-2-methyl-phenylamino)-4-fluoro-N-hydroxy-benzamide [Example 3]”, the values for the IC50 (in data set [1] (cell culture); against p45MEK (GST-MEK)) were 3000 nM and 72 nM, respectively.

“4-Fluoro-N-hydroxy-2-(4-cluoro-2-methyl-phenylamino)-benzamide [Example 11]”: the IC50 in data set [1] (cell culture) was found to be 500 nM; against p45MEK (GST-MEK) it was 334 nM.

As to “5-Bromo-N-cyclopropylmethoxy-3,4-difluoro-2-(4-iodo-2-methyl-phenylamino) [Example 58]”, the figures for the half-maximal inhibitory concentration (IC50) (in data set [1] (cell culture); against p45MEK (GST-MEK)) were 14 nM and 18 nM, respectively.

On to `Cc1cc(I)ccc1Nc1cc(F)ccc1C(=O)NO` [Example 1, 4-Fluoro-N-hydroxy-2-(4-iodo-2-methyl-phenylamino)-benzamide], for which the melting point lay in the range of 61 to 75 °C. Besides, 7 nM corresponded to half-maximal inhibition against p45MEK (GST-MEK) (IC50).

Turning to `Cc1cc(I)ccc1Nc1c(C(=O)NO)cc(Br)c(F)c1F` [Example 2, 5-Bromo-3,4-difluoro-N-hydroxy-2-(4-iodo-2-methyl-phenylamino)-benzamide], the melting point fell in the range of 80 to 90 °C. At p45MEK (GST-MEK), the IC50 turned out to be 3 nM.

Turning to `O=C(NO)c1ccc([N+](=O)[O-])cc1Nc1ccc(I)cc1Cl` [Example 82, 2-(2-Chloro-4-iodo-phenylamino)-N-hydroxy-4-nitro-benzamide], the IC50 in data set [1] was 40 nM; against p45MEK (GST-MEK), 3 nM.

For `Cc1cc(I)ccc1Nc1c(C(=O)NO)ccc(F)c1F` [Example 84, 3,4-Difluoro-N-hydroxy-2-(4-iodo-2-methyl-phenylamino)-benzamide], the IC50 came out at 5 nM in data set [1] and 1 nM against p45MEK (GST-MEK).

With `O=C(NOCC1CCC1)c1ccc(F)c(F)c1Nc1ccc(I)cc1Cl` [Example 89, 3,4-Difluoro-2-(2-chloro-4-iodo-phenylamino)-N-cyclobutylmethoxy-benzamide], the IC50 in data set [1] is 300 nM; against p45MEK (GST-MEK), 5 nM.

`O=C(NO)c1cc(Br)c(F)c(F)c1Nc1ccc(I)cc1Cl` [Example 93, 5-Bromo-2-(2-chloro-4-iodo-phenylamino)-3,4-difluoro-N-hydroxy-benzamide]: the IC50 in data set [1] amounted to 50 nM; against p45MEK (GST-MEK), 10 nM.

As for `Cc1cc(I)ccc1Nc1c(C(=O)NOCC(C)C)cc(Br)c(F)c1F` [Example 99, 5-Bromo-3,4-difluoro-2-(4-iodo-2-methyl-phenylamino)-N-isobutoxy-benzamide], the half-maximal inhibitory concentration (IC50) in data set [1] is 500 nM; against p45MEK (GST-MEK), 18 nM.

On to `Cc1cc(I)ccc1Nc1c(C(=O)NOCC2CCCCC2)cc(Br)c(F)c1F` [Example 100, 5-Bromo-N-cyclohexylmethoxy-3,4-difluoro-2-(4-iodo-2-methyl-phenylamino)-benzamide], for which the IC50 in data set [1] was greater than 1000 nM; at p45MEK (GST-MEK), 26 nM.

As to `Cc1cc(I)ccc1Nc1c(C(=O)NOCC2CCCC2)cc(Br)c(F)c1F` [Example 101, 5-Bromo-N-cyclopentylmethoxy-3,4-difluoro-2-(4-iodo-2-methyl-phenylamino)-benzamide], the IC50 in data set [1] is greater than 1000 nM; on p45MEK (GST-MEK) it was 8 nM.

`Cc1cc(I)ccc1Nc1c(C(=O)NOCC2CCC2)cc(Br)c(F)c1F` [Example 102, 5-Bromo-N-cyclobutylmethoxy-3,4-difluoro-2-(4-iodo-2-methyl-phenylamino)-benzamide]: the 50% inhibitory concentration (IC50) in data set [1] turned out to be 200 nM; against p45MEK (GST-MEK), 4 nM.

Values taken from patent US7169816B2, “4-bromo or 4-iodo phenylamino benzhydroxamic acid derivatives and their use as MEK inhibitors” (Warner-Lambert Company, priority 1997, dated 2007).
